These results are taken from ChEMBL document CHEMBL4706623, “GPR52 Antagonist Reduces Huntingtin Levels and Ameliorates Huntington's Disease-Related Phenotypes” (J Med Chem, 2021).

Each structure is given as a SMILES string.

One assay deals with G-protein coupled receptor 52 (Homo sapiens, UniProt Q9Y2T5). The assay can be described thus: Antagonist activity at GPR52 (unknown origin) expressed in HEK293 cells assessed as inhibition of WO459-induced cAMP accumulation preincubated for 15 mins followed by WO459 addition and measured after 30 mins by LANCE Ultra cAMP kit based microplate reader analysis. The class given is functional, cell-based. To be noted: hek293. (In general: cAMP levels reflect the balance of adenylyl cyclase and phosphodiesterase activity.)
Chain of G-protein coupled receptor 52 (Q9Y2T5 whole entry): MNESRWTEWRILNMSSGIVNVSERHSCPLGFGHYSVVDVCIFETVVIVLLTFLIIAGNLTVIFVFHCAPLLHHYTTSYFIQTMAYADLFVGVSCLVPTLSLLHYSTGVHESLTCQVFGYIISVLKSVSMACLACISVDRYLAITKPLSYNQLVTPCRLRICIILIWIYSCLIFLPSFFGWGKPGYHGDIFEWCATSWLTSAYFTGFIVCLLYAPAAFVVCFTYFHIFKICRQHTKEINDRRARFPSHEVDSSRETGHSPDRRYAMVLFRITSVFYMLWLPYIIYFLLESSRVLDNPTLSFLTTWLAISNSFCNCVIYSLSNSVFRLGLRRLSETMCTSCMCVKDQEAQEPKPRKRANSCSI
Take `CC/C=C/C(=O)c1ccccc1`: the IC50 entry was “Not Active”.

In the case of `O=C(/C=C/CCc1ccccc1)N1CCCCC1`, the IC50 entry is recorded as “Not Active”.

With `O=C(/C=C/CCc1ccccc1)c1ccc(F)cc1`, the IC50 result is “Not Active”.

Still in this assay, the particulars now being: read-out: IC50.
As for `O=C(/C=C/CCc1ccccc1)c1ccc(-c2ccccc2)cc1`, the IC50 turned out to be 7640 nM.

Regarding `Cc1ccccc1C(=O)/C=C/CCc1ccccc1`, the IC50 amounted to 2630 nM.

With `O=C(/C=C/CCc1ccccc1)c1ccccc1-c1ccccc1`, the IC50 is 1230 nM.

As to `O=C(/C=C/CCc1ccccc1)CCc1ccccc1`, the IC50 worked out at 5450 nM.

With `O=C(/C=C/CCc1ccccc1)c1cccc2ccccc12`, the IC50 is 3290 nM.

Turning to `O=C(/C=C/CCc1ccccc1)c1cccc(F)c1`, the IC50 is 2370 nM.

As to `Cc1cccc(C)c1C(=O)/C=C/CCc1ccccc1`, the IC50 came to 2820 nM.

In the case of `O=C(/C=C/CCc1ccccc1)c1ccc2ccccc2c1`, the IC50 amounted to 3540 nM.

As to `Cc1cccc(C(=O)/C=C/CCc2ccccc2)c1`, the IC50 was 2570 nM.

On to `COc1ccccc1C(=O)/C=C/CCc1ccccc1`, for which the IC50 is 1720 nM.

For the compound `O=C(/C=C/CCc1ccccc1Br)c1ccccc1`, the IC50 was determined as 1640 nM.

Take `O=C(/C=C/CCc1ccc(Br)cc1)c1ccccc1`: the IC50 was 1810 nM.

`O=C(/C=C/CCc1ccccc1)c1ccccn1`: the IC50 was 1820 nM.

For `O=C(/C=C/CCc1ccccc1)c1cccc(-c2ccccc2)c1`, the IC50 turned out to be 8130 nM.

As for `O=C(/C=C/CCc1ccccc1)c1ccccc1F`, the IC50 was found to be 1760 nM.

On to `COc1cccc(C(=O)/C=C/CCc2ccccc2)c1`, for which the IC50 was determined as 1490 nM.

As for `COc1ccc(C(=O)/C=C/CCc2ccccc2)cc1`, the IC50 was 3870 nM.

For `Cc1ccc(C(=O)/C=C/CCc2ccccc2)cc1`, the IC50 was 3020 nM.

In the case of `O=C(/C=C/CCc1ccccc1)c1ccoc1`, the IC50 was found to be 1520 nM.

As usually defined, the IC50 is the midpoint of a concentration-inhibition curve.
